Earlier results in patent publication US8206772B2, “Structured lipid compositions and methods of formulation thereof” (Kraft Foods Global Brands LLC, priority 2007, dated 2012).

Tests used:
[1] = rats, 5 percent and 10 percent of the diet
[2] = infants fed enriched milk

SMILES	nutritional value / toxicity when fed [1]	fat retained per day [2] [%]
CC(=O)OCC(COC(C)=O)OC(C)=O [triacetin]	nutritious	
CCCC(=O)OCC(COC(=O)CCC)OC(=O)CCC [tributyrin]	nutritious	90.1 to 90.2
CC(C)CC(=O)OCC(COC(=O)CC(C)C)OC(=O)CC(C)C [triisovalerin]	toxic	
